What was measured:
[1] = system: primary astrocytes; test: Protection of astrocytes from H2O2-induced cell death (LDH); type: cell-based, rat; conditions: LDH 20 h later
Protocol: Primary cultures of astrocytes were prepared from cerebral cortices of 1-2 day-old neonatal Wistar rats as described (Elmann et al., 2011b). Fourteen days old astrocytes were used in the experiments. The research was conducted in accordance with the NIH guide for the care and use of laboratory animals, and was approved by the Institutional Animal Care and Use Committee of The Volcani Center, Agricultural Research Organization (IL-135/07, approval date Apr. 11, 2007). All efforts were made to minimize animal suffering and to reduce the number of animals used.
Astrocytes were re-plated at 24-well poly-D-lysine-coated plastic plates at a density of 1×10^5/well, in DMEM w/o Phenol Red containing 2% FBS, 2 mM glutamine, 100 U/mL penicillin, and 100 μg/mL streptomycin. H2O2 in the presence or absence of TTF were added, and cell viability was determined using a commercial colorimetric assay (Roche Applied Science, Germany) according to the manufacturer's instructions. This assay is based on the measurement of lactate dehydrogenase (LDH) activity released from the cytosol of damaged cells into the incubation medium. The absorbance was measured at 492 nm in a plate reader. The percentage of cytotoxicity was calculated according to the following equation, where the “ATriton-x treated cells” is the maximum releasable LDH in the cells:
In order to characterize the ability of TTF to protect against H2O2-induced astrocytic cell death, inventors assessed changes in cell viability using a model in which oxidative stress was induced by the addition of H2O2 to cultures of primary astrocytes. The concentration of H2O2 used in experiments (175-200 μM) resembles the concentration reported in rat striatum under ischemic conditions (Hyslop et al., 1995). […] Following preincubation, H2O2 was added, and cytotoxicity was determined 20 h later using the LDH assay. […] It should be noted that at all concentrations tested, the cytotoxicity of this flavonoid by itself to astrocytes was very low (<11%) as was determined by the LDH method (FIG. 2C). […] The protective activity of TTF was also compared to that of memantine, which is used as a drug for the treatment of Alzheimer's disease.
1. Produce a primary culture of rat brain glial cells according to the method described in “Protective effects of the essential oil of salvia fruticosa and its constituents on astrocytic susceptibility to hydrogen peroxide-induced cell death”. 2009. A. Elmann, S. Mordechay, M. Rindner, O. Larkov, M. Elkabetz, U. Ravid. Journal of agricultural and food chemistry. 57(15):6636-41; 2. Separate astrocytes from other cell types in the culture according to the method described in “Protective effects of the essential oil of salvia fruticosa and its constituents on astrocytic susceptibility to hydrogen peroxide-induced cell death”. 2009. A. Elmann, S. Mordechay, M. Rindner, O. Larkov, M. Elkabetz, U. Ravid. Journal of agricultural and food chemistry. 57(15):6636-41; 3. Incubate the cultured astrocytes (37° C., 5% CO2) for 2 hours with freshly diluted TTF or AcA of the invention; 4. Add 175-200 micromolars of freshly diluted H2O2; 5. Incubate the culture for 20-24 hr (37° C., 5% CO2); 6. Measure cell cytotoxicity and viability by the colorimetric lactate dehydrogenase (LDH) assay (Roche Applied science) according to the manufacturer's instructions, and the crystal violet cell staining as follows: 7. Gently draw out medium from plate; 8. Transfer plate to a chemical hood; 9. Dispense 150 μl 5% formaldehyde (in PBS) to each well and incubate 15 min at RT; 10. Pour out formaldehyde to chemical waste and gently rinse under running tap water; 11. Remove excess water by tapping plate on a tissue paper; 12. Dispense 150 μl crystal violet solution (10 gr/liter, in water) to each well; 13. Incubate 15 min at RT (in the chemical hood); 14. Pour out crystal violet to chemical waste and gently rinse under running tap water until all residual dye is removed; 15. Tap plate on a tissue paper to remove remaining water; 16. […]

[2] = DPPH free radical scavenging assay; conditions: cell free; 8 min
Protocol: (§1) Antioxidant activity was measured using the 2,2-diphenyl-1-pieryhydrazyl (DPPH) radical scavenging assay. Different dilutions of TTF (or control drugs) were added to 1 mL of DPPH (3.9 mg/100 mL methanol) in test tubes wrapped in aluminum foil. Absorbance (A) was measured at 517 nm after 8 min incubation in the dark. The scavenging ability (%) of the samples was calculated as (Acontrol−Asample)/Acontrol×100).
as §1, with “achillolide A or quercetin” for “TTF (or control drugs)”
The DPPH scavenging ability of TTF, memantine and quercetin were compared for eight minutes. Results are shown in FIG. 7 and are the mean±SEM of two experiments performed in duplicates (n=4).
The DPPH scavenging ability of achillolide A and quercetin were tested for eight minutes. Values represent the mean±SEM (n=4 for each concentration). **p<0.01; ***p<0.001, compared to a mixture without achillolide A or quercetin.

[3] = Hydrogen peroxide scavenging activity (A230); conditions: for H2O2 scavenging ability: 1 mM H2O2 in PBS, 10 min; for H2O2 scavenged: 8 μM compound; for H2O2 scavenged / H2O2 scavenging ability at higher concentrations: 1 mM H2O2, 10 min; for H2O2 scavenging ability at higher concentrations: up to 32 μM compound
Protocol: The scavenging of H2O2 was determined by the method of Ruch et al. Carcinogenesis. 1989 June; 10(6):1003-8, using 1 mM instead of 4 mM H2O2. A 1 mM solution of H2O2 was prepared in PBS and was incubated with different concentrations of TTF, quercetin or memantine. Absorbance (A230) was determined spectrophotometrically 10 min later against blank solutions containing TTF, quercetin or memantine in PBS without H2O2.
(§2) For assessment of H2O2 scavenging activity, 1 mM H2O2 and different concentrations of TTF, quercetin or memantine were co-incubated in PBS. Optical density was measured 10 min later. The results are shown in FIG. 6 and are means±SEM of two experiments performed in duplicates (n=4). **P<0.01, ***P<0.001, compared to H2O2 in the absence of TTF.
as §2, with “[…]” for “assessment”, “achillolide A,” for “TTF,”, “results” for “results are shown in FIG. 6 and”, “compound Results are shown in FIG. 38.” for “TTF.”

[4] = 1 μM (lowest concentration tested), compound added 2 h before H2O2
[5] = 8 μM compound added 2 h before H2O2

C=C1CCC2=C(CO)C(=O)O[C@H]2/C=C(\C)[C@H](OC(C)=O)CC1=O [achillolide A]
protection of astrocytes from H2O2-induced cell death ([1]; H2O2 200 μM added 2 h after compound): protects
IC50 [2]: 45 µM
inhibition of DPPH absorbance at 517 nm (maximal scavenging ability) [2]: 60%
H2O2 scavenging ability [3]: hydrogen peroxide scavenging ability

CC12CC3CC(C)(C1)CC(N)(C3)C2 [memantine, reference compound]
protection against H2O2-induced cell death [1, 4]: 48%
protection against H2O2-induced cell death [1, 5]: 58%
inhibition of DPPH absorbance at 517 nm (maximal scavenging ability) [2]: 7%
H2O2 scavenging ability [3]: did not have any scavenging ability

O=c1c(O)c(-c2ccc(O)c(O)c2)oc2cc(O)cc(O)c12 [quercetin, 3,3′,4′,5,7-Pentahydroxyflavone, reference compound]
protection against H2O2-induced cell death ([1]; 10 μM compound added 2 h before H2O2): 36%
inhibition of DPPH absorbance at 517 nm (maximal scavenging ability) [2]: 90%
H2O2 scavenged [3]: 57%
H2O2 scavenging ability at higher concentrations [3]: 88%

COc1cc(-c2oc3cc(OC)c(OC)c(O)c3c(=O)c2O)ccc1O [TTF, 3,5,4′-trihydroxy-6,7,3′-trimethoxyflavone]
protection against H2O2-induced cell death [1, 4]: 24%
protection against H2O2-induced cell death [1, 5]: 92%
IC50 [2]: 45 µM
inhibition of DPPH absorbance at 517 nm (maximal scavenging ability) [2]: 60%
H2O2 scavenged [3]: 7%
H2O2 scavenging ability at higher concentrations [3]: ≤ 7%
